The source of these data is paper PMC4929710, “Specificity and mechanism of action of alpha-helical membrane-active peptides interacting with model and biological membranes by single-molecule force spectroscopy” (Scientific Reports, 2016).

Data set [1] concerns human red blood cells (hRBCs). Briefly: Hemolytic activity assay (MHC). The format is cell-based. To be noted: 1% final hRBCs in PBS (70 μL of 2% + 70 μL peptide), 37 °C, 2 h, absorbance 578 nm. The method, then:
Peptide samples were serially diluted with phosphate-buffered saline (PBS) and added to 96-well plates (round bottom) with 70 μL per well. Healthy human red blood cells (hRBCs) were collected using an anticoagulation tube with EDTAK2 and centrifuged at 1,000 rpm for 5 min. The erythrocytes were washed three times, resuspended in PBS, and then diluted to a concentration of 2% in PBS. A total of 70 μL of 2% erythrocytes was added to each well and incubated at 37 °C for 2 h. The plates were centrifuged for 10 min at 3,000 rpm and the supernatant was transferred to a 96-well plate (flat bottom). The release of hemoglobin was determined by measuring the absorbance of the supernatant at 578 nm. The hemolytic activity was determined as the minimal peptide concentration that caused hemolysis [minimal hemolytic concentration (MHC)]. Erythrocytes in PBS and distilled water were used as the control of 0% and 100% hemolysis, respectively.

The subject of the next data set is bacteria. As to conditions: text summary of Table 1, strain not specified. The method, then:
Minimal inhibitory concentrations (MICs) were used to represent the antimicrobial activity of MAPs and were determined by the standard microtiter dilution method. Four bacterial strains including two gram-negative bacterial strains of E. coli and P. aeruginosa, and two gram-positive bacterial strains of S. aureus and S. epidermidis were selected as representative prokaryotes. A single bacterial colony was picked and cultured in Mueller–Hinton (MH) medium for 18–20 h. The bacterial solution was diluted in the same medium for a final inoculum of 5 × 10^5 colony-forming units (CFU)/mL and placed in 96-well plates with 90 μL per well. Then, 10 μL of peptides was added. MICs were determined as the lowest peptide concentration that inhibited bacterial growth after incubation for 24 h at 37 °C. All assays were repeated in triplicate. GM is the geometric mean of MIC values from two gram-positive bacteria strains or two gram-negative bacteria strains in this table.

`CC[C@H](C)[C@H](NC(=O)[C@H](C)NC(=O)[C@H](CCCCN)NC(=O)[C@H](CC(C)C)NC(=O)[C@H](C)NC(=O)[C@@H](NC(=O)[C@H](Cc1cnc[nH]1)NC(=O)[C@H](CC(C)C)NC(=O)[C@@H](NC(=O)[C@@H](NC(=O)[C@H](CCCCN)NC(=O)[C@H](CCCCN)NC(=O)[C@H](C)NC(=O)[C@H](CO)NC(=O)[C@H](CCCCN)NC(=O)[C@H](Cc1ccccc1)NC(=O)[C@@H](NC(=O)[C@H](CCCCN)NC(=O)[C@H](CC(C)C)NC(=O)[C@H](Cc1ccccc1)NC(=O)[C@H](CO)NC(=O)[C@H](CCCCN)NC(=O)[C@H](Cc1c[nH]c2ccccc12)NC(=O)[C@H](CCCCN)NC(C)=O)[C@@H](C)O)[C@@H](C)O)C(C)C)[C@@H](C)O)C(=O)N[C@@H](CO)C(=O)N[C@@H](CO)C(N)=O` [Peptide V13K]: in data set [1], the “MHC (minimal hemolytic concentration)” value worked out at 250 µM. For the molecule “Ac-KWKSFAKTFKSAKKTVAHTALKAISS-NH2 [L6A/L17A]”, in the data set with bacteria, the MIC value entry is “approximately 125 μM”.
